Experimental findings from patent publication EP4733300A1, “NOVEL CHROMENE-BENZIMIDAZOLE DERIVATIVE OR PHARMACEUTICALLY ACCEPTABLE SALT THEREOF, AND USE THEREOF” (Korea University Research and Business Foundation, priority 2023, dated 2024) are described below.

Each structure is given as a SMILES string. Like-named read-outs stand apart in the source and are kept apart here.

For assay [1], the system named is STAT3, c-MET, ERK, and AKT. As to the kind of experiment: Western blot of HSP90 client proteins in MDA-MB-231. In kind it is cell-based, human. To be noted: 0, 5, 10, and 20 µM, 72 hours. On the technique in general: Immunoblotting shows a protein as a band on a membrane.
Assay [2] has as its system BT549. As to the kind of experiment: Morphological changes of cells by optical microscope, BT549. Type of assay: cell-based. To be noted: 0, 5, 10, and 20 µM, 72 hours. The protocol:
(§1) After treating the MDA-MB-231 and BT549 cell lines with the 1-1 compound by concentration (0, 5, 10, and 20 µM) for 72 hours, morphological changes of cells were observed using an optical microscope, which is shown in FIG. 7C.

Assay [3] deals with BT549. As to the kind of experiment: Propidium iodide DNA content flow cytometry (cell cycle), BT549. Type of assay: cell-based. To be noted: 0, 5, 10, and 20 µM, 72 hours. A general note: In flow cytometry, cells or beads pass a laser one at a time.
Assay [4] concerns MDA-MB-231. As to the kind of experiment: MTS assay cell viability, MDA-MB-231. In kind it is cell-based. To be noted: Homo sapiens, read-out: IC50 values according to the cell viability inhibition. The method, then:
MDA-MB-231 (Cell seeding numbers: 0.8(M231) x 10^4 cells/wells (confluency ≧ 25%), which is a human triple-negative breast cancer (TNBC) cell line, and JIMT-1 (Cell seeding numbers: 0.8(JIMT) x 10^4 cells/wells (confluency ≧ 25%)), which is a HER2 positive breast cancer (HER2+ BC) cell line, were used in the experiment.
The above cell lines were cultured in Dulbecco's modified Eagle's medium (DMEM) containing 10% fetal bovine serum (FBS), streptomycin-penicillin (100 U/mL), and Fungizone (0.625 µg/mL) at 5% CO2 and 37°C.
(§2) The human breast cancer cell lines MDA-MB-231 and JIMT-1 were treated with chromene-benzimidazole derivatives of Formulas 1-1 to 1-53 at various concentrations of 0, 1, and 5 µM, respectively, for 72 hours, and then cell viability was measured using the MTS assay technique. In the MTS assay, cells were attached to a 96-well plate for 24 hours, treated with the chromene-benzimidazole derivative for 72 hours, developed with MTS (3-(4,5-dimethylthiazol-2-yl)-5-(3-carboxymethoxyphenyl)-2-(4-sulfophenyl)-2H-tetrazolium) for 4 hours, and then the absorbance was measured at 490 nm using a Spectramax Plus384 microplate analyzer.
(§3) After treating the triple-negative breast cancer cell lines MDA-MB-231 and BT549 with the chromene-benzimidazole derivative Compound (1-1) by concentration (0, 0.01, 0.05, 0.1, 0.5, 1, 5, 10, 20, and 40 µM) for 72 hours, concentration-dependent cell viability (MTS assay) inhibition and IC50 values according to the cell viability inhibition were confirmed and shown in FIGS. 7A and 7B.
The […] MDA-MB-231 and […] were treated with the chromene-benzimidazole derivative compounds (1-13, 1-19, and 1-22) by concentration (0, 0.01, 0.05, 0.1, 0.25, 0.5, 1, 2, and 5 µM) for 72 hours. Detailed treatment conditions were the same as disclosed in Example 2.1. Concentration-dependent cell viability (MTS assay) inhibition and IC50 values according to the cell viability inhibition were confirmed and shown in FIG. 9.
After treating the triple-negative breast cancer cell line MDA-MB-231 with the chromene-benzimidazole derivative compounds (1-9, 1-10, 1-11, 1-15, 1-16, and 1-17) by concentration (0, 0.01, 0.05, 0.1, 0.25, 0.5, 1, 2, and 5 µM) for 72 hours, concentration-dependent cell viability (MTS assay) inhibition and IC50 values according to the cell viability inhibition were confirmed and shown in FIG. 13. […]

Assay [5] concerns BT549. As to the kind of experiment: MTS assay cell viability, BT549. Type of assay: cell-based. To be noted: Homo sapiens, BT-549, 72 hours, read-out: IC50 values according to the cell viability inhibition. The method, then: as §2, §3
In assay [6] the test system is MDA-MB-231. As to the kind of experiment: Annexin V/PI staining flow cytometry, MDA-MB-231. Type of assay: cell-based, human. The text has this: (§4) The degree of apoptosis of MDA-MB-231 and BT549 cells by the compound of Formula 1-1 was confirmed by a flow cytometer through Annexin V/PI staining, which is shown in FIG. 7D.
The test system of assay [7] is BT549. As to the kind of experiment: Annexin V/PI staining flow cytometry, BT549. Type of assay: cell-based.
Description: as §4

The subject of assay [8] is C-terminal domain of Hsp90. As to the kind of experiment: Hsp90 C-terminal activity by binding analysis with C recombinant protein. To be noted: compared to Novobiocin. The text has this: In order to evaluate the ability to inhibit the C-terminal domain of Hsp90, it was attempted to evaluate the ability to inhibit Hsp90 C-terminal activity through analysis of binding force between the 1-1 compound, a C-terminal Hsp90 inhibitor Novobiocin, and an N-terminal inhibitor Onalespib, and a C recombinant protein.

The test system of assay [9] is MDA-MB-231. As to the kind of experiment: Morphological changes of cells by optical microscope, MDA-MB-231. Type of assay: cell-based, human. To be noted: 72 hours; for morphological changes of cells: 0.5 µM. The protocol:
as §1
Subsequently, an experiment was performed as follows to confirm the targeting ability for Compounds 1-13 and 1-22. After treating the MDA-MB-231 cell line with the 1-22 and 1-13 compounds at a concentration of 0.5 µM for 72 hours, morphological changes of cells were observed using an optical microscope, and micrographs are shown in FIG. 10A. […] In addition, after treating MDA-MB-231 with the 1-22 and 1-13 compounds at a concentration of 0.5 µM for 72 hours, expression of HSP90 chaperon complexes (HSP90, HSP70, HSP27, HSF-1), HSP90 client proteins (EGFR, AKT, JAK2, STAT3), Tubulin targeting ability (Tubulin, mitosis marker p-His H3), and apoptosis-related factors (Cleaved caspase-7, Survivin, Mcl-1) proteins was confirmed using a Western blot technique, which is shown in FIG. 10B.

Assay [10] deals with tubulin. As to the kind of experiment: Western blot of tubulin and apoptosis-related proteins in MDA-MB-231. To be noted: 0, 5, 10, and 20 µM, 72 hours. Type of assay: cell-based, human. The protocol:
Subsequently, after treating the MDA-MB-231 cell line with the compound of Formula 1-1 by concentration (0, 5, 10, and 20 µM) for 72 hours, degradation of tubulin and expression of apoptosis-related proteins were confirmed by Western blot, which is shown in FIG. 8C.

Assay [11] relates to lung cancer cell line H1299. As to the kind of experiment: MTS assay cell viability, H1299. Type of assay: cell-based. To be noted: 0, 0.1, 0.5, 1, 5, and 10 µM, 72 hours. The method, then:
(§5) After treating a hematologic cancer cell line HL-60, a liver cancer cell line HepG2, a lung cancer cell line H1299, a colorectal cancer cell line HCT116, and an ovarian cancer cell line SKOV3 with the chromene-benzimidazole derivative compound 1-22 by concentration (0, 0.1, 0.5, 1, 5, and 10 µM) for 72 hours, concentration-dependent cell viability (MTS assay) inhibition and IC50 values according to the cell viability inhibition were confirmed and shown in FIG. 11.
(In general: Tetrazolium assays rely on reduction of a dye to a coloured formazan, in cell work by metabolically active cells.)

The test system of assay [12] is ovarian cancer cell line SKOV3. As to the kind of experiment: MTS assay cell viability, SKOV3. Type of assay: cell-based. To be noted: 0, 0.1, 0.5, 1, 5, and 10 µM, 72 hours. The protocol:
as §5

In assay [13] the test system is hematologic cancer cell line HL-60. As to the kind of experiment: MTS assay cell viability, HL-60. In kind it is cell-based. To be noted: 0, 0.1, 0.5, 1, 5, and 10 µM, 72 hours. The method, then:
as §5

Assay [14] has as its system colorectal cancer cell line HCT116. As to the kind of experiment: MTS assay cell viability, HCT116. In kind it is cell-based. To be noted: 0, 0.1, 0.5, 1, 5, and 10 µM, 72 hours. The method, then:
as §5

Assay [15] has as its system liver cancer cell line HepG2. As to the kind of experiment: MTS assay cell viability, HepG2. In kind it is cell-based. To be noted: 0, 0.1, 0.5, 1, 5, and 10 µM, 72 hours. The protocol: as §5
Setting [16] is: MDA-MB-231 and JIMT-1 treated, cell line of the values not given, 72 hours.

Consider `COc1c(NC(=O)Nc2ccc3[nH]c(Cl)nc3c2)ccc2c1C=CC(C)(C)O2` [Compound 1-1, 1-(2-chloro-1H-benzo[d]imidazol-5-yl)-3-(5-methoxy-2,2-dimethyl-2H-chromen-6-yl)urea], for which the “protein expression and phosphorylation of HSP90 client proteins” value in assay [1] was “decreases in protein expression and phosphorylation of STAT3, c-MET, ERK, and AKT”. For the same molecule, the “morphological changes of cells (apoptosis)” value in assay [2] is “apoptosis was induced in a concentration-dependent manner”; in assay [9] (0, 5, 10, and 20 µM), “apoptosis was induced in a concentration-dependent manner”. In addition, the “cell cycle (DNA content)” value in [3] is “G2/M phase cell cycle arrest”. Further, the concentration for half-maximal inhibition (IC50) (commonly the concentration that gives 50% inhibition) in assay [4] (MDA-MB-231, 72 hours) worked out at 5660 nM; in [5] it was 8490 nM. The degree of apoptosis entry in [6] was “early and late apoptosis were induced”; in assay [7] it was “early and late apoptosis were induced”. In assay [8], the “C-terminal HSP90 activity” value was “lowered C-terminal HSP90 activity to less than half compared to the existing Novobiocin”. Moreover, the “degradation of tubulin / tubulin polymerization reaction” value in [10] is on record as “could inhibit a tubulin polymerization reaction”.
In the case of `COc1c(NC(=O)Nc2ccc3[nH]c(-c4ccc(F)cc4)nc3c2)ccc2c1C=CC(C)(C)O2` [Compound 1-9, 1-(2-(4-fluorophenyl)-1H-benzo[d]imidazol-5-yl)-3-(5-methoxy-2,2-dimethyl-2H-chromen-6-yl)urea], the IC50 in assay [4] (MDA-MB-231, 72 hours) came to 273 nM.
Turning to `COc1c(NC(=O)Nc2ccc3[nH]c(-c4cccc(F)c4)nc3c2)ccc2c1C=CC(C)(C)O2` [Compound 1-10, 1-(2-(3-fluorophenyl)-1H-benzo[d]imidazol-5-yl)-3-(5-methoxy-2,2-dimethyl-2H-chromen-6-yl)urea], the IC50 in assay [4] (MDA-MB-231, 72 hours) was determined as 829 nM.
Regarding `COc1c(NC(=O)Nc2ccc3[nH]c(-c4ccc(Cl)cc4)nc3c2)ccc2c1C=CC(C)(C)O2` [Compound 1-11, 1-(2-(4-chlorophenyl)-1H-benzo[d]imidazol-5-yl)-3-(5-methoxy-2,2-dimethyl-2H-chromen-6-yl)urea], in assay [4] (MDA-MB-231, 72 hours), the IC50 was found to be 335 nM.
Regarding `COc1c(NC(=O)Nc2ccc3[nH]c(-c4ccc(C#N)cc4)nc3c2)ccc2c1C=CC(C)(C)O2` [Compound 1-13, 1-(2-(4-cyanophenyl)-1H-benzo[d]imidazol-5-yl)-3-(5-methoxy-2,2-dimethyl-2H-chromen-6-yl)urea], the cell viability inhibition entry in [11], in assay [12], in [13], in assay [14] and in [15] was “effective cell viability inhibition” throughout. Moreover, in assay [4] (setting [16]), the IC50 came out at 154 nM. The “morphological changes of cells” value in assay [9] was “Typical morphological changes of cell cycle arrest and apoptosis”.
With `COc1ccc(-c2nc3cc(NC(=O)Nc4ccc5c(c4OC)C=CC(C)(C)O5)ccc3[nH]2)cn1` [Compound 1-15, 1-(5-methoxy-2,2-dimethyl-2H-chromen-6-yl)-3-(2-(6-methoxypyridin-3-yl)-1H-benzo[d]imidazol-5-yl)urea], the IC50 in assay [4] (MDA-MB-231, 72 hours) came to 452 nM.
On the same count and under the same terms, in the case of `COc1c(NC(=O)Nc2ccc3[nH]c(-c4ccc(N(C)C)cc4)nc3c2)ccc2c1C=CC(C)(C)O2` [Compound 1-16, 1-(2-(4-(dimethylamino)phenyl)-1H-benzo[d]imidazol-5-yl)-3-(5-methoxy-2,2-dimethyl-2H-chromen-6-yl)urea] it was 960 nM; in that of `COc1cc(-c2nc3cc(NC(=O)Nc4ccc5c(c4OC)C=CC(C)(C)O5)ccc3[nH]2)cc(OC)c1OC` [Compound 1-17, 1-(5-methoxy-2,2-dimethyl-2H-chromen-6-yl)-3-(2-(3,4,5-trimethoxyphenyl)-1H-benzo[d]imidazol-5-yl)urea], 586 nM.
With `COc1c(NC(=O)Nc2ccc3[nH]c(-c4ccc(F)cc4F)nc3c2)ccc2c1C=CC(C)(C)O2` [Compound 1-19, 1-(2-(2,4-difluorophenyl)-1H-benzo[d]imidazol-5-yl)-3-(5-methoxy-2,2-dimethyl-2H-chromen-6-yl)urea], in assay [4] (setting [16]), the IC50 was found to be 1060 nM.
In the case of `COc1c(NC(=O)Nc2ccc3[nH]c(-c4ccc(C)cc4)nc3c2)ccc2c1C=CC(C)(C)O2` [Compound 1-22, 1-(5-methoxy-2,2-dimethyl-2H-chromen-6-yl)-3-(2-(p-tolyl)-1H-benzo[d]imidazol-5-yl)urea], the cell viability inhibition entry in assay [11], in [12], in assay [13], in assay [14] and in assay [15] was “effective cell viability inhibition” throughout. Moreover, the IC50 in assay [4] (setting [16]) came out at 276 nM. The “morphological changes of cells” value in assay [9] is “Typical morphological changes of cell cycle arrest and apoptosis”.
